{
  "source": "patent US9974782B2",
  "about": "“Phosphodiesterase inhibitors and uses thereof” (THE TRUSTEES OF COLUMBIA UNIVERSITY IN THE CITY OF NEW YORK, priority 2008, dated 2018)",
  "key": {"[1]": {"system": "CA1 region of hippocampal slices from APP/PS1 and WT mice", "experiment": "Electrophysiological analysis (BST, LTP) of hippocampal slices perfused with inhibitor", "type": "cell-based, mouse", "settings": "for effect on LTP impairment in words: slices from APP/PS1 (transgenic) mice, 10 min prior to tetanus"}, "[2]": {"experiment": "Pharmacokinetics testing, plasma and brain (LC-MS/MS)", "experimental": "The pharmacokinetic studies were conducted in male BABL/c mice. The blood and brain samples were collected at predetermined times from three mice per time point. […] An LC-MS/MS method was developed to determine these compounds in plasma and brain samples.\nQuantification was achieved by the internal standard method using peak area ratios of the analysis to the internal standard in plasma and brain. Concentrations were calculated using a weighted least-squares linear regression (W=1/×2). The major pharmacokinetic parameters were calculated and the brain-to-plasma distribution ratios were estimated.\nThe PDE5 inhibitor was prepared by dissolving the test article in 0.5% methyl cellulose to yield final concentrations at 5 mg/mL for PO administration.\nMice were sacrificed by cervical dislocation after blood harvest. The plasma were separated via centrifugation (4° C., 3500 rpm, 10 min) and stored in −80° C. before analysis.\nFrozen unknown plasma samples were thawed at room temperature and vortexed thoroughly. With a pipette, 25 μL of plasma was transferred into a 1.5 mL Eppendorf tube. To each sample, 25 μL of methanol and 25 μL of the internal standard were added, followed by the addition of 100-μL methanol. The sample mixture was vortexed for approximately 1 min. After centrifugation at 11000 g for 5 min, the upper organic layer was transferred to a glass tube and evaporated at 40° C. under a gentle stream of nitrogen. Residues were dissolved in 150 μL of the mobile phase, and mixed in a vortex mixer. A 20-μL aliquot of the resulting solution was injected onto the LC/MS/MS system for analysis.\nBrains were collected immediately after mice death. The brains were excised, weighed, and rinsed by cold saline and then frozen at −80° C. until further process for LC/MS/MS analysis.\nOn the day of the assay, the frozen tissue samples were thawed unassisted at room temperature. When completely thawed, each tissue sample of 200 mg was weighed and placed into a plastic tube. Methanol (1.0 mL) was added to facilitate homogenization, which was conducted using a Fluko F6/10 superfine homogenizer for approximately 1 min. Then, the homogenized samples were vortexed for 1 min. A 25-μL aliquot of the homogenized samples was transferred into an Eppendorf tube. To each sample, 25 μL of methanol and 25 μL of the internal standard were added. The sample mixture centrifuged at 11000 g for 5 min. A 20-μL aliquot of the supernatants was diluted to 80 μL or 60 μL with the mobile phase and a 10-μL aliquot was injected onto the LC/MS/MS system for analysis.\nWe then investigated the PK and BBB penetration capability of YF012403. After p.o. administration at 50 mg/kg to BABL/c mice, plasma and brain concentrations were determined by the LC-MS/MS."}, "APP/PS1 mice": {"system": "APP/PS1 mice", "experiment": "Contextual and cued fear conditioning", "type": "in vivo, mouse", "settings": "for effect on contextual fear memory in words: APP/PS1 (transgenic) mice", "experimental": "Given that sildenafil reversed LTP deficits in 3-month-old APP/PS1, it was then tested whether the inhibitor reversed the cognitive defects in these animals. As reported above sildenafil offers the advantage of crossing the BBB and therefore it can be easily utilized in behavioural experiments. Three-month-old mice were divided into 4 groups: APP/PS1 with sildenafil, APP/PS1 with vehicle, WT with sildenafil and WT with vehicle. Sildenafil and vehicle control solutions were administered i.p. at a concentration of 3 mg/kg. This concentration was chosen based on previous studies showing that these amounts of sildenafil raise hippocampal cGMP levels and improve memory in aged rats^A6 and mice^A7 independent of vascular effects^A6. The effects of acute administration of sildenafil was first examined on fear-conditioning learning, a type of learning that is impaired in several AD mouse models^A14 and depends on hippocampus and amygdala. The hippocampus is indispensable for contextual fear conditioning^A15, a form of associative learning in which mice must associate a neutral stimulus with an aversive one. Mice were trained to associate neutral stimuli with an aversive one. They were placed in a new context (fear conditioning box), exposed to a white noise cue (CS) paired with a mild foot shock (US), and injected with sildenafil immediately after the training. Fear learning was assessed twenty-four hours later by measuring freezing behaviour—the absence of all movement except for that necessitated by breathing—in response to representation of the context or of the auditory cue within a completely different context. No difference was found in the freezing behaviour among the four groups of mice before the training phase (FIG. 2A). Twenty-four hours later, a decrease in the freezing behaviour of vehicle-treated APP/PS1 mice compared with that of vehicle-treated WT littermates in the analysis of the contextual learning was observed (FIG. 2A). […] Fear conditioning, a hippocampus-independent task A^15, was next tested and no difference in freezing among the 4 groups was found, as APP/PS1 mice are known to have a selective hippocampus-dependent impairment in associative learning^A14.\nSildenafil was tested to determine whether a brief course of treatment can provide long term benefits. The PDE5 inhibitor was examined to see if it maintains its protective effect against synaptic dysfunction and memory loss. In these experiments, both APP/PS1 and WT mice of 3 months of age were injected intraperitoneally with 3 mg/kg/day sildenafil for 3 weeks, then the treatment was stopped for 9-12 weeks prior to testing. The mice were next subjected to training for contextual learning. […] There were no differences between the 4 groups in the cued conditioning test.\nThree-month-old APP/PS1 and WT mice were separated into 4 groups: APP/PS1 mice treated with vehicle, APP/PS1 mice treated with PDE inhibitor, WT mice treated with vehicle, and WT mice treated with PDE inhibitor. […] In the remaining experiments, sildenafil was injected via i.p. The drug was administered either acutely or for 1 course of 3 week treatment. For assessment of the short-term effects of sildenafil, the drug was given at a concentration of 3 mg/kg immediately after the training. This dose yields concentrations of ˜2.5 μM cGMP in the hippocampus^A53. For assessment of long-term effects, sildenafil was given daily by i.p. injection at a concentration of 3 mg/kg for 3 weeks and then treatment was stopped for 9-12 weeks prior to behavioral testing. Contextual and cued fear conditioning was performed for 3 days. Radial-arm water-maze (RAWM) was performed for 3 weeks. Then, the animals were sacrificed for electrophysiological recordings. To decide the time of administration of sildenafil in the acute experiments, a series of studies was performed in which the inhibitor was injected i.p. at 5 min before the electric shock or at 5 min before the first acquisition trial with the radial arm water maze. […]"}, "[3]": {"settings": "male, BABL/c, mouse, in vivo, po, 50 mg/kg, half-life in the brain"}, "[4]": {"settings": "male, BABL/c, mouse, in vivo, po, 50 mg/kg, half-life in the plasma"}, "[5]": {"settings": "APP/PS1 slices, sildenafil 50 nM"}, "[6]": {"settings": "WT slices, 120 min after tetanus, sildenafil 50 nM, tadalafil 50 nM, IC354 1 μM"}, "[7]": {"settings": "WT slices, sildenafil or tadalafil 50 nM"}, "[8]": {"settings": "slices of 3-month-old APP/PS1 mice, 120 min after tetanus, 10 min perfusion (sildenafil 50 nM, tadalafil 50 nM, IC354 1 μM)"}, "[9]": {"settings": "3 month-old WT, sildenafil 3 mg/Kg or tadalafil 1 mg/Kg i.p."}, "[10]": {"settings": "APP/PS1, 3 mg/Kg i.p. for 3 weeks at 3 months, tested 9-12 weeks later"}, "[11]": {"settings": "WT, 3 mg/Kg i.p. for 3 weeks at 3 months, tested 9-12 weeks later"}},
  "data": [
    {"compound": "COc1ccc(CNc2c(CO)cnc3c(C4CC4)cc(C#N)cc23)cc1Cl", "note": "[YF012403, 4-(3-chloro-4-methoxybenzylamino)-8-cyclopropyl-3-(hydroxymethyl)-quinoline-6-carbonitrile]", "values": [
      {"measurement": "effect on LTP impairment in words", "setting": "[1]", "value": "rescues the defect in LTP"},
      {"measurement": "Kp", "setting": "[2]; male, BABL/c, mouse, brain, oral, 50 mg/kg", "value": 0.41},
      {"measurement": "Cmax", "setting": "[2]; male, BABL/c, mouse, in vivo, po, 50 mg/kg", "value": 385, "unit": "ng/g"},
      {"measurement": "half-life", "setting": "[2]; [3]", "value": 1.04, "unit": "h"},
      {"measurement": "half-life", "setting": "[2]; [4]", "value": 1.33, "unit": "h"},
      {"measurement": "log BB", "setting": "[2]; mouse, in vivo", "value": "−0.38"},
      {"measurement": "time of peak plasma concentration after dosing", "setting": "[2]; p.o., 50 mg/kg, BABL/c mice", "value": 0.5, "unit": "h"},
      {"measurement": "effect on contextual fear memory in words", "setting": "APP/PS1 mice", "value": "attenuated"}
    ]},
    {"compound": "CCCc1nn(C)c2c(=O)[nH]c(-c3cc(S(=O)(=O)N4CCN(C)CC4)ccc3OCC)nc12", "note": "[sildenafil, 5-[2-ethoxy-5-(4-methyl-1-piperazinylsulphonyl)phenyl]-1-methyl-3-n-propyl-1,6-dihydro-7H-pyrazolo[4,3-d]pyrimidin-7-one]", "values": [
      {"measurement": "basal neurotransmission without tetanus as % of vehicle-treated WT slices", "setting": "[1]; [5]", "value": "~96", "unit": "%"},
      {"measurement": "basal neurotransmission without tetanus, fEPSP % of baseline", "setting": "[1]; [5]", "value": "99.99±3.71", "unit": "%"},
      {"measurement": "LTP, fEPSP slope as % of baseline", "setting": "[1]; [6]", "value": "213.26±13.66", "unit": "%"},
      {"measurement": "level of LTP as % of vehicle-treated WT slices", "setting": "[1]; [6]", "value": "~99", "unit": "%"},
      {"measurement": "basal synaptic responses without tetanus as % of vehicle-treated WT slices", "setting": "[1]; [7]", "value": "~97", "unit": "%"},
      {"measurement": "basal synaptic responses without tetanus, fEPSP % of baseline", "setting": "[1]; [7]", "value": "100.51±2.34", "unit": "%"},
      {"measurement": "effect on LTP impairment in words", "setting": "[1]", "value": "reverses LTP impairment"},
      {"measurement": "minimum effective dose that completely rescues synaptic plasticity", "setting": "[1]; slices of 3-month-old APP/PS1 mice", "value": 50, "unit": "nM"},
      {"measurement": "LTP, fEPSP slope as % of baseline", "setting": "[1]; [8]", "value": "215.08±11.85", "unit": "%"},
      {"measurement": "level of LTP as % of vehicle-treated WT littermates", "setting": "[1]; [8]", "value": "~100", "unit": "%"},
      {"measurement": "LTP as % of vehicle-treated WT slices", "setting": "[1]; slices of 6 month old APP/PS1 mice, 500 nM", "value": 93, "unit": "%"},
      {"measurement": "minimum effective dose that completely rescues LTP", "setting": "[1]; slices of 6 month old APP/PS1 mice, 10 min bath application", "value": 500, "unit": "nM"},
      {"measurement": "effect on BST (fEPSP slope) in words", "setting": "[1]; slices of 6 month old APP/PS1 mice, different concentrations", "value": "do not change fEPSP slope"},
      {"measurement": "half-life", "setting": "[2]; [3]", "value": 0.84, "unit": "h"},
      {"measurement": "half-life", "setting": "[2]; [4]", "value": 1.21, "unit": "h"},
      {"measurement": "minimum time needed for a positive effect on contextual fear memory", "setting": "APP/PS1 mice; 3 mg/kg, treated at 3 months, tested at 6-8 months", "value": 2, "unit": "weeks"},
      {"measurement": "minimum concentration needed to improve contextual fear memory", "setting": "APP/PS1 mice; 3-month-old APP/PS1, acute", "value": 3, "unit": "mg/kg"},
      {"measurement": "contextual freezing time as % of vehicle-treated WT mice", "setting": "APP/PS1 mice; 3 month-old APP/PS1, sildenafil 3 mg/Kg i.p. after training, 24 hrs", "value": "about 87%"},
      {"measurement": "contextual freezing time", "setting": "APP/PS1 mice; 3 month-old APP/PS1, sildenafil 3 mg/Kg or tadalafil 1 mg/Kg i.p., 24 hrs after training", "value": "28.95±3.94", "unit": "%"},
      {"measurement": "contextual freezing as % of vehicle-treated WT mice", "setting": "APP/PS1 mice; [9]", "value": "about 89%"},
      {"measurement": "contextual freezing time", "setting": "APP/PS1 mice; [9]", "value": "30.1±3.11", "unit": "%"},
      {"measurement": "effect on cued conditioning in words", "setting": "APP/PS1 mice; 3 months old APP/PS1 and WT, 3 mg/kg", "value": "do not affect freezing during cued conditioning"},
      {"measurement": "effect on contextual fear memory in words", "setting": "APP/PS1 mice", "value": "complete"},
      {"measurement": "contextual freezing as % of vehicle-treated WT mice", "setting": "APP/PS1 mice; [10]", "value": "~97", "unit": "%"},
      {"measurement": "contextual freezing time", "setting": "APP/PS1 mice; [10]", "value": "30.32±1.98", "unit": "%"},
      {"measurement": "freezing time as % of vehicle-treated APP/PS1 mice", "setting": "APP/PS1 mice; APP/PS1, injected i.p. 5 min before the electric shock", "value": "~90", "unit": "%"},
      {"measurement": "contextual freezing as % of vehicle-treated WT mice", "setting": "APP/PS1 mice; [11]", "value": "~104", "unit": "%"},
      {"measurement": "contextual freezing time", "setting": "APP/PS1 mice; [11]", "value": "32.41±1.88", "unit": "%"},
      {"measurement": "minimum concentration needed to improve contextual fear memory", "setting": "APP/PS1 mice; treated at 3 months, tested at 6-8 months", "value": 3, "unit": "mg/kg"}
    ]}
  ]
}
